The subject of experiment [1] is HEK-Blue Null2. As to the kind of experiment: NULL HEK-Blue NF-κB reporter cell activation assay (control). In kind it is cell-based. The note with it: 10 μM, 16 h (FIG. 5). As for the experimental part: (§1) FIG. 5(A-B). Lead 3,5-dimethyl-N-arylpyrazole TT007 specifically activates NOD2. A-B, Activation of Null (control) and NOD1-expressing HEK-293T cells treated for 16 h with 10 μM of the indicated compound using a colorimetric assay. ****P<0.0001.
(§2) Cell culture. The following cell lines were used and sourced as follows: HEK-Blue NOD2 (InvivoGen, hkb-hnod2), HEK-Blue NOD1 (InvivoGen, hkb-nod1), HEK-Blue Null2 (hkb-null2), and B16-F10 (ATCC CRL-6475). All cell lines were cultured at 37° C. in 5% CO2 in DMEM (ThermoFisher, 11995065) supplemented with 10% fetal bovine serum (FBS), 100 U mL-1 penicillin, and 100 μg mL-1 streptomycin. Cells were maintained at no greater than 70% confluency and subcultured using TrypLE Express. Cell lines were routinely cultured without antibiotics to ensure no bacterial infection and tested for mycoplasma using a Universal Mycoplasma Detection Kit (ATCC 30-1012K). Primary human peripheral mononuclear blood cells (PBMCs) were cultured at 37° C. in 5% CO2 in RPMI 1640 (ThermoFisher, 61870143) supplemented with 10% FBS. […]
(§3) Reporter cell line activation assay. […] To measure activity, wells were then gently pipetted up and down to mix the conditioned medium, and absorbance from the colorimetric product of the secreted alkaline phosphatase was measured at 630 nm. […] Activity was then measured by absorbance as described above.

For experiment [2], the target named is T1, NOD1 (Homo sapiens, UniProt Q9Y239).
T1 construct: host or cells: HEK-293T-derived HEK-Blue NF-kB/SEAP reporter cells
T1 sequence (Q9Y239 1-953): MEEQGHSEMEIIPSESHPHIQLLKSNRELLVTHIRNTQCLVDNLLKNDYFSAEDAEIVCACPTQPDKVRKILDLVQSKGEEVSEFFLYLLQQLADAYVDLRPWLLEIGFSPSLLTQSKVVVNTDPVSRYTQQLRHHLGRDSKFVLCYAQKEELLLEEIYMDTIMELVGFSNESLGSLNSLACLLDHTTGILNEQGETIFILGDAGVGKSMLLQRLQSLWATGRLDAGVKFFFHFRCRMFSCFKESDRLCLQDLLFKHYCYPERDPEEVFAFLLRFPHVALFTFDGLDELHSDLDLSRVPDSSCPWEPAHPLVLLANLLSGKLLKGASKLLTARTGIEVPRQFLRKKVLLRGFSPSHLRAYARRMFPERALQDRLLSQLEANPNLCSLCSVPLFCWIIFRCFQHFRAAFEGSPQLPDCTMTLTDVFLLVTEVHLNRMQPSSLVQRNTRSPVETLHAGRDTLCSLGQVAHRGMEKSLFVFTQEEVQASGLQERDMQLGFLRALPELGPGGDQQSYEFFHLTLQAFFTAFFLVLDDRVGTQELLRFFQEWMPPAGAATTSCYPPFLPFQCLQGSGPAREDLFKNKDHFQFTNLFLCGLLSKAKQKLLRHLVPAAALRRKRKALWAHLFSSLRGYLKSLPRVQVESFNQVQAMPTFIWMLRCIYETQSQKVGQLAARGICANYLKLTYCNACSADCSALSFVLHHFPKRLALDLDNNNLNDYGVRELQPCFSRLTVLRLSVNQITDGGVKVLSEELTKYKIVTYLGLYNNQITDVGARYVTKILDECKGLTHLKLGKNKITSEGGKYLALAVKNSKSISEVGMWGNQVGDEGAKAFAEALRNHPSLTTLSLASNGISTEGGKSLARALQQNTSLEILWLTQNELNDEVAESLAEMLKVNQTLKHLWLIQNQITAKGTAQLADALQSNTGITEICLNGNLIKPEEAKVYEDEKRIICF
Briefly: NOD1 HEK-Blue NF-κB reporter cell activation assay (NOD1-expressing HEK-293T cells). The note with it: 10 μM, 16 h (FIG. 5). In kind it is cell-based. As for the experimental part: as §1, §2, §3

For experiment [3], the target named is T2, NOD2 (Homo sapiens, UniProt Q9HC29).
T2 construct: host or cells: HEK-293T-derived HEK-Blue NF-kB/SEAP reporter cells
T2 sequence (Q9HC29 whole entry): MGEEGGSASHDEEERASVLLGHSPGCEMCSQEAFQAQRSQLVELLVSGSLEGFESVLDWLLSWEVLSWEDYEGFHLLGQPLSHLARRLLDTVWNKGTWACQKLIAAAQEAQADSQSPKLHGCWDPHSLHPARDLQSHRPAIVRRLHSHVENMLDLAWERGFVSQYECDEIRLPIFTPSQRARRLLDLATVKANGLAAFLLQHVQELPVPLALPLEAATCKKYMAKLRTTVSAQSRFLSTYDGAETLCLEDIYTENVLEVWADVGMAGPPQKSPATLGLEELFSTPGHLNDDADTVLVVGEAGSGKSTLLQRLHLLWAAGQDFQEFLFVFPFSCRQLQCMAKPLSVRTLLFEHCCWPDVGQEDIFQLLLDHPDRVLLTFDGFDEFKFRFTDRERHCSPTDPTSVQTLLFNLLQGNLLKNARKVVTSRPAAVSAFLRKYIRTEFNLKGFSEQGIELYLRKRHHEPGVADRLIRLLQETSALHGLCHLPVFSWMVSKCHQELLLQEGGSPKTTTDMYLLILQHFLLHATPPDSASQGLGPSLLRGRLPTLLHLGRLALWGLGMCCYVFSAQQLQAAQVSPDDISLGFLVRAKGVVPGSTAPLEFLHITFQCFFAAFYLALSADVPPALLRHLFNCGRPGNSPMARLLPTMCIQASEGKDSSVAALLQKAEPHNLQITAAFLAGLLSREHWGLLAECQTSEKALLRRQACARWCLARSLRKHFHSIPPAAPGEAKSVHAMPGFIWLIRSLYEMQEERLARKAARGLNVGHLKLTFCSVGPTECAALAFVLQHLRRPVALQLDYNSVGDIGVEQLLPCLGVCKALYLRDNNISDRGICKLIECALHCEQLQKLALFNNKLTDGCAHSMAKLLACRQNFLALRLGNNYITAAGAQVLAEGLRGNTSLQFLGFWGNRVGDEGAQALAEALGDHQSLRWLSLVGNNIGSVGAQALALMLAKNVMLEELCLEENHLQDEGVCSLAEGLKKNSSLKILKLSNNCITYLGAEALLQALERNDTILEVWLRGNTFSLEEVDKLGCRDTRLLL
As to the kind of experiment: NOD2-HEK-Blue NF-κB reporter cell activation assay (NOD2-expressing HEK-293T cells). In kind it is cell-based. The source says:
FIG. 1(A-F). Virtual screening for small molecule NOD2 agonists. A, Docked structure of muramyl dipeptide (MDP) in the leucine-rich repeat (LRR) domain of rabbit NOD2 (pdb 5IRM). […] B, Results of virtual docking approach with reported chemical structures related to MDP. C, Workflow of virtual screening in which a library was generated using carboxylic acids appended to the L-Val-D-Glu dipeptide and then docked to the NOD2 LRR domain. D, Desmuramyl MDP (dMDP) structures resulting from the virtual screen that were synthesized for further screening. Chemicals shown as a pure enantiomer were synthesized as a racemic mixture. E, Activation of NOD2-expressing HEK-293T cells treated for 16 h with 10 µM of the indicated compound using a colorimetric assay. F, Dose-dependent activation of NOD2-expressing HEK-293T cells using the indicated compounds. Numbers in parentheses represent calculated negative log of the half maximal effective concentration (pEC50) values. NOD activation assays were analyzed using a one-way ANOVA with Dunnett's multiple comparisons test compared to the DMSO control. pEC50 values were derived by a three-parameter dose-response nonlinear regression. ****P<0.0001.
FIG. 2(A-G). Structure-activity relationship studies of 3,5-dimethyl-N-arylpyrazole NOD2 agonists. A, Structures of 3,5-dimethyl-N-arylpyrazole structures synthesized for SAR studies. B-F, Dose-dependent activation of NOD2-expressing HEK-293T cells using the indicated compounds grouped by similar structural perturbations. Numbers in parentheses represent calculated pEC50 values. G, Graph of calculated pEC50 values vs. calculated partition coefficient (clogP). Dotted lines show equivalent lipophilic ligand efficiency (LLE) values. Red arrow indicates optimization of the TT007 scaffold to TT030. pEC50 values were derived by a three-parameter dose-response nonlinear regression.
Cell culture. The following cell lines were used and sourced as follows: HEK-Blue NOD2 (InvivoGen, hkb-hnod2), HEK-Blue NOD1 (InvivoGen, hkb-nod1), HEK-Blue Null2 (hkb-null2), and B16-F10 (ATCC CRL-6475). All cell lines were cultured at 37° C. in 5% CO2 in DMEM (ThermoFisher, 11995065) supplemented with 10% fetal bovine serum (FBS), 100 U mL-1 penicillin, and 100 μg mL-1 streptomycin. Cells were maintained at no greater than 70% confluency and subcultured using TrypLE Express. Cell lines were routinely cultured without antibiotics to ensure no bacterial infection and tested for mycoplasma using a Universal Mycoplasma Detection Kit (ATCC 30-1012K). Primary human peripheral mononuclear blood cells (PBMCs) were cultured at 37° C. in 5% CO2 in RPMI 1640 (ThermoFisher, 61870143) supplemented with 10% FBS. All experimental work using human samples was reviewed and approved by the Scripps Research Institutional Review Board (Protocol IRB-21-7816NOD2).
Reporter cell line activation assay. Approximately 24 h before the assay, culture medium for each of the HEK-Blue reporter cell lines was replaced with a 1:1 mixture of DMEM supplemented with 10% FBS and OptiMEM. On the day of the assay, single cell suspensions (150,000 cells/mL) were produced in HEK-Blue detection medium (InvivoGen, hb-det2). Cells were aliquoted at 200 μL per well of a 96-well plate containing 0.2 μL of a 1000× stock of each test compound in DMSO. Cells were then incubated at 37° C. in 5% CO2 for 8-10 h. To measure activity, wells were then gently pipetted up and down to mix the conditioned medium, and absorbance from the colorimetric product of the secreted alkaline phosphatase was measured at 630 nm. In some assays, cells were stimulated for 16 h with compounds as described above in complete DMEM. Then, 20 μL of the conditioned medium was mixed with 180 μL QUANTI-Blue solution (InvivoGen, rep-qbs) and incubated for 2-4 h at 37° C. Activity was then measured by absorbance as described above.

Experiment [4] has as its system B16-F10 subcutaneous tumors. Briefly: B16-F10 tumor growth assay with anti-PD-L1 co-treatment. Type of experiment: in vivo, mice. The note with it: wild-type C57BL/6 mice, 100 μg α-PD-L1 and 100 μg compound i.p. every other day. As for the experimental part: FIG. 3(A-H). NOD2 agonist TT030 activates cytokine production in vitro and improves immune checkpoint inhibitor treatment of tumor growth in vivo. A-D, Measurements of secreted cytokine levels from human peripheral mononuclear blood cells (PMBCs) treated with the indicated compounds for 24 h without or with lipopolysaccharide (LPS). E, Structures of TT030 and its enantiomer (TT030-ent). F, Activation of NOD1- and NOD2-expressing HEK-293T cells with the indicated compounds. C12-iE-DAP is a lipophilic version of the NOD1 agonist, iE-DAP. G, Growth profiles of B16-F10 subcutaneous tumors in wild-type C57BL/6 mice treated with 100 μg α-PD-L1 and 100 μg of the indicated compounds every other day starting at Day 7. H, Growth profiles of B16-F10 subcutaneous tumors in wild-type or Nod2^−/− C57BL/6 mice treated with 100 μg α-PD-L1 and 100 μg TT030 every other day starting at Day 7. Cytokine secretion assays and NOD activation assays were analyzed using a one-way ANOVA with Dunnett's multiple comparisons test compared to the DMSO control. Longitudinal tumor growth assays were analyzed using linear mixed-effects model analysis on the log transformed data. ns=not significant, *P<0.05, **P<0.01, ***P<0.001, ****P<0.0001.
Animals. Specific pathogen-free, eight-week old male C57BL/6J (B6, 000664) and B6.129S1—Nod2^tm1Flv/J (Nod2^−/−, 005763 from Flavell Lab, Yale School of Medicine) were obtained from The Jackson Laboratory. Animals were housed in autoclaved caging with SaniChip bedding and enrichment for nest building on a 12-hour light/dark cycle. Animals were provided gamma-irradiated chow (LabDiet, 5053) and sterile drinking water ad libitum. Animal care and experiments were conducted in accordance with NIH guidelines and approved by the Institutional Animal Care and Use Committee at Scripps Research (Protocol AUP-21-095).
Tumor growth assay. B16-F10 cells were subcultured on the day prior to harvesting for tumor inoculation. On the day of injection, cells were harvested using TrypLE Express, washed and resuspended in cold PBS, and counted with a hemocytometer. Cells were then resuspended at 2×10^6 cells mL^−1 in PBS and mixed 1:1 with Matrigel matrix (Corning; growth factor reduced, 356231). Cell suspensions were kept on ice prior to injection. Animals were anesthetized using 3% isoflurane, and their right flank was shaved with hair clippers. Animals were then subcutaneously injected with 100 μL of the cell suspension on their mid-right flank (1×10^5 cells per injection). Once tumors were established at roughly 25-100 mm^3, tumor volume was measured every other day. Digital calipers were used to measure the length and width of each tumor, and tumor volume was calculated as length×[…], where width was the smaller of the two measurements. […]

The target of experiment [5] is T1, NOD1. The conditions noted are these: relative to iE-DAP; cited from earlier work.

Each structure is given as a SMILES string. Where two headings read alike, the source gives them in different places.

The source of these data is US20260176300A1, “N-ARYLPYRAZOLE NOD2 AGONISTS AS PROMOTERS OF IMMUNE CHECKPOINT INHIBITOR THERAPY” (THE SCRIPPS RESEARCH INSTITUTE, priority 2022, published 2026).

In the case of `CCOC(=O)CC[C@@H](NC(=O)[C@@H](NC(=O)c1c(C)nn(-c2ccc(F)cc2)c1C)C(C)C)C(=O)OCC` [TT007, Diethyl (1-(4-fluorophenyl)-3,5-dimethyl-1H-pyrazole-4-carbonyl)-L-valyl-D-glutamate], the “Activation of NULL HEK-Blue NF-κB reporter cells” value in experiment [1] is “inactive”. Besides, the “Activation of NOD1 HEK-Blue NF-κB reporter cells” value in experiment [2] was “inactive”. The “Activation of NOD2-expressing HEK-293T cells, colorimetric assay” value in experiment [3] (10 µM, 16 h (FIG. 1E)) was “active”. For the same compound, the EC50 was around 1 µM in experiment [3] (FIG. 1F, read-out: pEC50, dose-dependent NOD2 activation (converted)) and 1 µM in experiment [3] (calculated, three-parameter dose-response nonlinear regression, read-out: pEC50 (μM), dose-dependent activation of NOD2-expressing HEK-293T cells (converted)).
`CCOC(=O)CC[C@H](NC(=O)[C@H](NC(=O)c1c(C)nn(-c2cc[nH]c(=O)c2)c1C)C(C)C)C(=O)OCC` [TT030-ent, Diethyl (3,5-dimethyl-1-(2-oxo-1,2-dihydropyridin-4-yl)-1H-pyrazole-4-carbonyl)-D-valyl-L-glutamate]: in experiment [4], the “B16 tumor growth over time” value is recorded as “not”. The “NOD2 activity in the HEK-Blue in vitro assay” value in experiment [3] (FIG. 3F) was “NOD2-inactive”.
Turning to `CCCCCCCCCCCC(=O)N[C@H](CCC(=O)NC(CCCC(N)C(=O)O)C(=O)O)C(=O)O` (some centres unmarked) [C12-iE-DAP], the “Greater activation of NOD1-dependent NF-κB reporter” value in experiment [5] is given as around 100 fold.
